Source: paper PMC3914206

Experiments:
Assay type in all cases: binding
Design in all cases: KINOMEscan: ABL1(F317L)-phosphorylated / KINOMEscan: ABL1(H396P)-nonphosphorylated / KINOMEscan: ABL1(H396P)-phosphorylated / KINOMEscan: ABL1(M351T)-phosphorylated / KINOMEscan: ABL1(T315I)-phosphorylated / KINOMEscan: ABL1-nonphosphorylated / KINOMEscan: ABL1-phosphorylated / KINOMEscan: ACVR2A / KINOMEscan: ACVR2B / KINOMEscan: ADCK3 / KINOMEscan: ADCK4 / KINOMEscan: AKT1 / KINOMEscan: AKT3 / KINOMEscan: ALK / KINOMEscan: ARK5 / KINOMEscan: AURKA / KINOMEscan: AURKC / KINOMEscan: BIKE / KINOMEscan: BMPR1A / KINOMEscan: BMPR1B / KINOMEscan: BMX / KINOMEscan: BRK / KINOMEscan: BRSK1 / KINOMEscan: BRSK2 / KINOMEscan: CAMK1 / KINOMEscan: CAMK1D / KINOMEscan: CAMK1G / KINOMEscan: CAMK2A / KINOMEscan: CAMK2B / KINOMEscan: AAK1 / KINOMEscan: CAMK2D / KINOMEscan: CAMK2G / KINOMEscan: ABL1(F317I)-nonphosphorylated / KINOMEscan: ABL1(F317I)-phosphorylated / KINOMEscan: ABL1(F317L)-nonphosphorylated: unit: % Ctrl
Conditions in all cases: Compound Concentration 10 µM
panel of 442 kinases [1] = target: T1, panel of 442 kinases (Homo sapiens, UniProt O43293)
T1 construct: purchased KINOMEscan
T1 sequence (O43293 whole entry): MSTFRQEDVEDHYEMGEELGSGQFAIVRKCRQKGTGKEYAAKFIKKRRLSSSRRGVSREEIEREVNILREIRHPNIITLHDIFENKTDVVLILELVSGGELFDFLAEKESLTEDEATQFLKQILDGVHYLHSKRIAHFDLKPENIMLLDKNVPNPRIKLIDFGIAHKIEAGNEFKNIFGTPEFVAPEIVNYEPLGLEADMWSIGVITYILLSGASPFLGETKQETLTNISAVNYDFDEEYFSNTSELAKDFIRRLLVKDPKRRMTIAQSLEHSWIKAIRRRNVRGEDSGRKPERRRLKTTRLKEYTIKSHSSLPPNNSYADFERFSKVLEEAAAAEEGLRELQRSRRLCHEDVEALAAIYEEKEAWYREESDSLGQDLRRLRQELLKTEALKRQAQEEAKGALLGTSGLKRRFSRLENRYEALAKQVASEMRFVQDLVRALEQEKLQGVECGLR
Excerpt: (§1) We assessed the selectivity of members of this scaffold using the KINOMEscan methodology across a near comprehensive panel of 442 kinases [[18,27]].

panel of 442 kinases [2] = target: T2, panel of 442 kinases (Homo sapiens, UniProt Q13555)
T2 construct: purchased KINOMEscan
T2 sequence (Q13555 whole entry): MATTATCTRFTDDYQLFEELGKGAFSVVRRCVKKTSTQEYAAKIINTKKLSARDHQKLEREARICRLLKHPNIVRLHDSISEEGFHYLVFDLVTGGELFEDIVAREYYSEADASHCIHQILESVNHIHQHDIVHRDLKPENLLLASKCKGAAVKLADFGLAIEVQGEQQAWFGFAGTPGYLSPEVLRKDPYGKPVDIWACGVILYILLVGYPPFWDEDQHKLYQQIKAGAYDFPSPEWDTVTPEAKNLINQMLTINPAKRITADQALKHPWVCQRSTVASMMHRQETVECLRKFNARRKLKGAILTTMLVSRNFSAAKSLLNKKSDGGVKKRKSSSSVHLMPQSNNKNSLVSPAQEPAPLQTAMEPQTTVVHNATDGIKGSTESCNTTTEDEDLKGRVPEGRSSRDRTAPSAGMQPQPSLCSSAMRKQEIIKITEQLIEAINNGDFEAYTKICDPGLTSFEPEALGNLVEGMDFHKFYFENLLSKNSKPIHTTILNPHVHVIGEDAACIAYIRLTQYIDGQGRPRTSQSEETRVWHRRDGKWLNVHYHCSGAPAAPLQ
Excerpt: as §1

panel of 442 kinases [3] = target: T3, panel of 442 kinases (Homo sapiens, UniProt Q92918)
T3 construct: purchased KINOMEscan
T3 sequence (Q92918 whole entry): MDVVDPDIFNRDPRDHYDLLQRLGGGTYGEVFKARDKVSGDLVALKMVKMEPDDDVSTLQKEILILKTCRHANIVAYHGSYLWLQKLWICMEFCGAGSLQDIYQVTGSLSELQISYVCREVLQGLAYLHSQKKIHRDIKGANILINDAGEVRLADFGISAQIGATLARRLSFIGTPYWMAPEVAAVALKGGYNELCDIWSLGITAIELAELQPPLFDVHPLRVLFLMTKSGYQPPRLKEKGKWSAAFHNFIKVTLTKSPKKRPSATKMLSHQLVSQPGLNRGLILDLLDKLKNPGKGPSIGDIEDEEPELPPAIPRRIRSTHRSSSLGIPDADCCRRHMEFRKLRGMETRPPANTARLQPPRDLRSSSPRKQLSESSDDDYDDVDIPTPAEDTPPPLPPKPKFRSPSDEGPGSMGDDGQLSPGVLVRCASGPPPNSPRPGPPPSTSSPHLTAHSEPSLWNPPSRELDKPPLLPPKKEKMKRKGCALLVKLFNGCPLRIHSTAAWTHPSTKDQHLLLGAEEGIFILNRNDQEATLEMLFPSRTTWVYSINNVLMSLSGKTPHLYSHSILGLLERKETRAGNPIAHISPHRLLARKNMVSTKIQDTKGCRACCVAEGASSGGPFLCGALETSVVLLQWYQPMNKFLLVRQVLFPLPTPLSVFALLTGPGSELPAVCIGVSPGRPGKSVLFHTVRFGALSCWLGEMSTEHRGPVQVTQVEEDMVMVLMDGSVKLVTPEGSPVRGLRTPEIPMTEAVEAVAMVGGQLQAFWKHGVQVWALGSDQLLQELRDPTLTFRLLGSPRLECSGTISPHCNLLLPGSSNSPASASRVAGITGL
Excerpt: as §1

Compound | KINOMEscan: DAPK3 (panel of 442 kinases [1]) | KINOMEscan: CAMK2G (panel of 442 kinases [2]) | KINOMEscan: HPK1 (panel of 442 kinases [3])
COc1cc(C(=O)N2CCC(N3CCN(C)CC3)CC2)ccc1Nc1ncc2c(n1)N(C1CCCC1)c1ccccc1C(=O)N2C [Compound 25, 11-cyclopentyl-2-((2-methoxy-4-(4-(4-methylpiperazin-1-yl)piperidine-1-carbonyl)phenyl)amino)-5-methyl-5H-benzo[e]pyrimido[5,4-b][1,4]diazepin-6(11H)-one] | 86 | 98 | 89
COc1cc(C(=O)N2CCC(N3CCN(C)CC3)CC2)ccc1Nc1ncc2c(n1)N1CCc3cccc(c31)C(=O)N2C [Compound 24] | – | 76 | –
COc1cc(C(=O)N2CCC(N3CCN(C)CC3)CC2)ccc1Nc1ncc2c(n1)N(C)c1ccccc1C(=O)N2C [15 (LRRK2-IN-1)] | 67 | 47 | 100
CCOc1cc(C(=O)N2CCC(N3CCN(C)CC3)CC2)ccc1Nc1ncc2c(n1)N(C1CCCC1)c1ccccc1C(=O)N2C [Compound 26] | 100 | 94 | 94
